Where two headings read alike, the source gives them in different places.
Columns and labels:
Experiment in all cases: biochemical
Parameters in all cases: DiscoveRx KINOMEscan active site-directed competition binding; percent of control kinase bound to immobilised ligand
ASK1 = molecular target: T1, ASK1 (Homo sapiens, UniProt Q99683)
T1 construct: gene MAP3K5
T1 sequence (Q99683 1-1374): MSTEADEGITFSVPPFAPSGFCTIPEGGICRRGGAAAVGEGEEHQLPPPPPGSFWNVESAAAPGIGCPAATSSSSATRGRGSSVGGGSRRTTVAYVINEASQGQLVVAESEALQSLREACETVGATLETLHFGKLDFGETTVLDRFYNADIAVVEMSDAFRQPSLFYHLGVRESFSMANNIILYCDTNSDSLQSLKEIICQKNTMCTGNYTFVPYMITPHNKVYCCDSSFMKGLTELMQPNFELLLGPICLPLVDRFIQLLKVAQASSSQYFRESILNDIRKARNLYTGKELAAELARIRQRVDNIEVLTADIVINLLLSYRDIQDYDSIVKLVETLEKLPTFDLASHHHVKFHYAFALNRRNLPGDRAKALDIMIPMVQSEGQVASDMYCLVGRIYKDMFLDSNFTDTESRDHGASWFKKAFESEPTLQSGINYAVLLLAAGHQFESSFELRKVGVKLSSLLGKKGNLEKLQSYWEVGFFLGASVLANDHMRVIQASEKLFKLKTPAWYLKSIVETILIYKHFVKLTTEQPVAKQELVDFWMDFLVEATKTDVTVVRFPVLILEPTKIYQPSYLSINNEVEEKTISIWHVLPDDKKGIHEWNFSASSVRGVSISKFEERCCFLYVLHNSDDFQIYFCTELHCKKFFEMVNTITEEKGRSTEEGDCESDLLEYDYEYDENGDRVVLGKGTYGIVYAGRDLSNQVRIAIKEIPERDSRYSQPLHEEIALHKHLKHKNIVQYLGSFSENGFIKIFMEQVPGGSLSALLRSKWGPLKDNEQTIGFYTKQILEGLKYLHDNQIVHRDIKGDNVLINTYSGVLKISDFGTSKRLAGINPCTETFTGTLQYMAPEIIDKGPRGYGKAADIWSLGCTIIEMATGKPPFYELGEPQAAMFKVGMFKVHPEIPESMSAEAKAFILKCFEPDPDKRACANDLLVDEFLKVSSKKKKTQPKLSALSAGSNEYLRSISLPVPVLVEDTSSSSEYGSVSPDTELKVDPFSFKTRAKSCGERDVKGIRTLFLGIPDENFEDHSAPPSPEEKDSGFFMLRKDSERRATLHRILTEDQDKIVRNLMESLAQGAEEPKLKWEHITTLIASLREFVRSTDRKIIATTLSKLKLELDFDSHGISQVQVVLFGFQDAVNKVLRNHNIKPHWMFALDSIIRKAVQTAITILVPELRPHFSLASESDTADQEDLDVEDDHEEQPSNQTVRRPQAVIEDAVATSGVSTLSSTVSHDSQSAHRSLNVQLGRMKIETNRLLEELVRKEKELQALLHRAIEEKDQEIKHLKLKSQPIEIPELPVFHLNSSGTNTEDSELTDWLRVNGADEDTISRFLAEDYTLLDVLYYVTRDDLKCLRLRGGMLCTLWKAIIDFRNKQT

TYRO3 = molecular target: T2, TYRO3 (Homo sapiens, UniProt Q06418)
T2 sequence (Q06418 1-890): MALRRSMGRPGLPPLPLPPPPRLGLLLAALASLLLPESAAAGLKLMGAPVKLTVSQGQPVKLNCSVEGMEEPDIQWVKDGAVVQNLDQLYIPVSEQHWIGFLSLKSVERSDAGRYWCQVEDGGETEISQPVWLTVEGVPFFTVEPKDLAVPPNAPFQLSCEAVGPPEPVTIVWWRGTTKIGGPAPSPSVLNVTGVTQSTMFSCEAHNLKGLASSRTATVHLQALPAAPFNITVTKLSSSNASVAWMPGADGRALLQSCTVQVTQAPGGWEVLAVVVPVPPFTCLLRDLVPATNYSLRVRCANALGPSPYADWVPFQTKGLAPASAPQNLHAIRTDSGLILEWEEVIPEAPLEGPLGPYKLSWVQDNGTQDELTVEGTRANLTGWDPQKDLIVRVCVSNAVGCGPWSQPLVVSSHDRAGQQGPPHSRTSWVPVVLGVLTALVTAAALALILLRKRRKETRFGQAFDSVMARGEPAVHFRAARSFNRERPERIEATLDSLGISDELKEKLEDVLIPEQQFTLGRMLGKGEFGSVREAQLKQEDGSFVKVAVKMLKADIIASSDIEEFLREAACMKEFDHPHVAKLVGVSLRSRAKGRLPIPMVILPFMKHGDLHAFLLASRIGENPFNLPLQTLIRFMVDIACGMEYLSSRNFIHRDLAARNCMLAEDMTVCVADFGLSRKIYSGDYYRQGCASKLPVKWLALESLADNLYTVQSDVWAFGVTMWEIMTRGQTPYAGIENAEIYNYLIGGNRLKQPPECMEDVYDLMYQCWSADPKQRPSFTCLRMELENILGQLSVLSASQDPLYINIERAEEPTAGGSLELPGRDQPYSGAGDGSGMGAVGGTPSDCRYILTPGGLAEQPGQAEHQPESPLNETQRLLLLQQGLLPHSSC

TSSK1B = molecular target: T3, TSSK1B (Homo sapiens, UniProt Q9BXA7)
T3 sequence (Q9BXA7 1-367): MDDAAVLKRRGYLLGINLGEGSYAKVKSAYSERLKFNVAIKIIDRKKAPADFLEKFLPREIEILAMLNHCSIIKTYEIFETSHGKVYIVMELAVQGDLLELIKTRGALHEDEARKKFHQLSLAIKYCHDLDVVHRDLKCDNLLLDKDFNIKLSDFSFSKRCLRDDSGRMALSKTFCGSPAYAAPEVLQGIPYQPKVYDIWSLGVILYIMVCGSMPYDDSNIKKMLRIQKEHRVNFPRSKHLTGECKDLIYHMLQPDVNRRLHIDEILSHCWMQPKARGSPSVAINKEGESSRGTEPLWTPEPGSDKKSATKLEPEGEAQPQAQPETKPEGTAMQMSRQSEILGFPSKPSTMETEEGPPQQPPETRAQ

[1] = read-out: Talazoparib (BMN 673) / %Ctrl @ 10000nM
[2] = read-out: Olaparib / %Ctrl @ 10000nM
[3] = read-out: Rucaparib / %Ctrl @ 10000nM, binding competition, % of control
[4] = read-out: Niraparib (MK-4827) / %Ctrl @ 10000nM

Cn1ncnc1[C@H]1c2n[nH]c(=O)c3cc(F)cc(c23)N[C@@H]1c1ccc(F)cc1 [Talazoparib]
percent of control binding at 10 µM (ASK1; [1]): 93% | percent of control binding at 10 µM (TYRO3; [1]): 100% | percent of control binding at 10 µM (TSSK1B; [1]): 94%

O=C(c1cc(Cc2n[nH]c(=O)c3ccccc23)ccc1F)N1CCN(C(=O)C2CC2)CC1 [Olaparib]
percent of control binding at 10 µM (ASK1; [2]): 94% | percent of control binding at 10 µM (TYRO3; [2]): 100% | percent of control binding at 10 µM (TSSK1B; [2]): 100%

CNCc1ccc(-c2[nH]c3cc(F)cc4c3c2CCNC4=O)cc1 [Rucaparib]
percent of control binding at 10 µM (ASK1; [3]): 92% | percent of control binding at 10 µM (TYRO3; [3]): 100% | percent of control binding at 10 µM (TSSK1B; [3]): 88%

NC(=O)c1cccc2cn(-c3ccc([C@@H]4CCCNC4)cc3)nc12 [Niraparib]
percent of control binding at 10 µM (ASK1; [4]): 90% | percent of control binding at 10 µM (TYRO3; [4]): 89% | percent of control binding at 10 µM (TSSK1B; [4]): 65%

— publication PMC7026418, “The kinase polypharmacology landscape of clinical PARP inhibitors” (Scientific Reports, 2020)
